Measurements as given in ChEMBL document CHEMBL1154446, “Synthesis and preliminary biological evaluation of new carbon-11 labeled tetrahydroisoquinoline derivatives as SERM radioligands for PET imaging of ER expression in breast cancer” (Eur J Med Chem, 2008).
Calls of active or inactive are those of the source. The calls are words filed in the database; no cut-off is given here.

Tests used:
Type in all cases: functional, cell-based
[1] = test system: MCF7; assay: Antiproliferative activity against human MCF7 cells at 0.625 nM after 24 hrs by MTS assay
[2] = test system: MCF7; assay: Antiproliferative activity against human MCF7 cells at >0.625 to 10 nM after 24 hrs by MTS assay
[3] = test system: MCF7; assay: Antiproliferative activity against human MCF7 cells at 0.3125 to 0.625 nM after 24 hrs by MTS assay

| SMILES | Activity [1] | Activity [2] | Activity [3] |
| --- | --- | --- | --- |
| CCC(=C(c1ccc(O)cc1)c1ccc(OCCN(C)C)cc1)c1ccccc1 | Active | Active |  |
| COC(=O)C1CCN(CCOc2ccc(C3(C)c4ccc(O)cc4CCN3c3ccc(Cl)cc3)cc2)CC1 (stereo unspecified) |  | Active | Active |
| COC(=O)C1CCN(CCOc2ccc(C3(C)c4ccc(O)cc4CCN3c3ccc(F)cc3)cc2)CC1 (stereo unspecified) | inactive | Active |  |
